Measurements from PubChem BioAssay AID2060340 (Molecular Pharmacology Branch, DTP, NCI, 2025).
“And” between values parts separate entries of the source, which are not always exact repeats. Identical values can stand only once.

Tested on: 349418-098-R-PDC spheroids, viability, % test/control
Experiment: Anticancer human tumor 349418-098-R-PDC patient-derived lung adenocarcinoma cell line growth inhibition [IpAb]
Conditions: spheroids with HUVEC and MSC; for viability, T/C: stronger effect = lower value
How it was run: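 Multi-cell spheroids of 60% tumour cells, 25% HUVEC and 15% MSC in ultra-low-attachment U-bottom wells, treated with agents combined with ipatasertib or abemaciclib. Half-log ranges top out near clinical Cmax, or 10 microM when Cmax is unknown.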

[1] = curve of first compound, second compound 0.01 µM
[2] = curve of first compound, second compound 0.0316 µM
[3] = curve of first compound, second compound 0.1 µM
[4] = curve of first compound, second compound 0.316 µM
[5] = curve of first compound, second compound 1 µM
[6] = second compound 0.01 µM, first compound 0.00949 µM
[7] = second compound 0.01 µM, first compound 0.03 µM
[8] = second compound 0.01 µM, first compound 0.0949 µM
[9] = second compound 0.01 µM, first compound 0.3 µM
[10] = second compound 0.0316 µM, first compound 0.00949 µM
[11] = second compound 0.0316 µM, first compound 0.03 µM
[12] = second compound 0.0316 µM, first compound 0.0949 µM
[13] = second compound 0.0316 µM, first compound 0.3 µM
[14] = second compound 0.1 µM, first compound 0.00949 µM
[15] = second compound 0.1 µM, first compound 0.03 µM
[16] = second compound 0.1 µM, first compound 0.0949 µM
[17] = second compound 0.1 µM, first compound 0.3 µM
[18] = second compound 0.316 µM, first compound 0.00949 µM
[19] = second compound 0.316 µM, first compound 0.03 µM
[20] = second compound 0.316 µM, first compound 0.0949 µM
[21] = second compound 0.316 µM, first compound 0.3 µM
[22] = second compound 1 µM, first compound 0.00949 µM
[23] = second compound 1 µM, first compound 0.03 µM
[24] = second compound 1 µM, first compound 0.0949 µM
[25] = second compound 1 µM, first compound 0.3 µM
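Note: spheroids exposed to compounds for 7 days.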

**Q.** CC(=O)c1c(C)c2cnc(Nc3ccc(N4CCNCC4)cn3)nc2n(C2CCCC2)c1=O + CCN1CCN(Cc2ccc(Nc3ncc(F)c(-c4cc(F)c5nc(C)n(C(C)C)c5c4)n3)nc2)CC1 was tested. Which IC50 [1] did it give?
**A.** 6.56 nM

**Q.** What about the IC50 [2] of the same molecule?
**A.** < 0.949 nM

**Q.** And the IC50 [3]?
**A.** < 0.949 nM

**Q.** What about the IC50 [4] of the same molecule?
**A.** < 0.949 nM

**Q.** And the IC50 [5]?
**A.** < 0.949 nM

**Q.** And the viability, T/C (second compound 0.01 µM, first compound 0.000949 µM)?
**A.** 58.4%

**Q.** What about the viability, T/C (second compound 0.01 µM, first compound 0.003 µM) of the same molecule?
**A.** 64.5%

**Q.** What about the viability, T/C [6] of the same molecule?
**A.** 40.4%

**Q.** And the viability, T/C [7]?
**A.** 35.1%

**Q.** What about the viability, T/C [8] of the same molecule?
**A.** 19.1%

**Q.** What about the viability, T/C [9] of the same molecule?
**A.** 15.8%

**Q.** What about the viability, T/C (second compound 0.0316 µM, first compound 0.000949 µM) of the same molecule?
**A.** 40.7%

**Q.** And the viability, T/C (second compound 0.0316 µM, first compound 0.003 µM)?
**A.** 38.7%

**Q.** And the viability, T/C [10]?
**A.** 28.5%

**Q.** And the viability, T/C [11]?
**A.** 23.6%

**Q.** What about the viability, T/C [12] of the same molecule?
**A.** 15.1%

**Q.** And the viability, T/C [13]?
**A.** 15.6%

**Q.** And the viability, T/C (second compound 0.1 µM, first compound 0.000949 µM)?
**A.** 24.8%

**Q.** And the viability, T/C (second compound 0.1 µM, first compound 0.003 µM)?
**A.** 24.8%

**Q.** And the viability, T/C [14]?
**A.** 20.7%

**Q.** What about the viability, T/C [15] of the same molecule?
**A.** 19.5%

**Q.** What about the viability, T/C [16] of the same molecule?
**A.** 16.1%

**Q.** And the viability, T/C [17]?
**A.** 14.6%

**Q.** What about the viability, T/C (second compound 0.316 µM, first compound 0.000949 µM) of the same molecule?
**A.** 16.8%

**Q.** And the viability, T/C (second compound 0.316 µM, first compound 0.003 µM)?
**A.** 19.6%

**Q.** And the viability, T/C [18]?
**A.** 19%

**Q.** What about the viability, T/C [19] of the same molecule?
**A.** 16%

**Q.** And the viability, T/C [20]?
**A.** 13.8%

**Q.** What about the viability, T/C [21] of the same molecule?
**A.** 14.4%

**Q.** What about the viability, T/C (second compound 1 µM, first compound 0.000949 µM) of the same molecule?
**A.** 13.4%

**Q.** What about the viability, T/C (second compound 1 µM, first compound 0.003 µM) of the same molecule?
**A.** 17.6%

**Q.** And the viability, T/C [22]?
**A.** 15.1%

**Q.** And the viability, T/C [23]?
**A.** 15%

**Q.** What about the viability, T/C [24] of the same molecule?
**A.** 14.9%

**Q.** And the viability, T/C [25]?
**A.** 13.9%

**Q.** For Cn1ncnc1[C@H]1c2n[nH]c(=O)c3cc(F)cc(c23)N[C@@H]1c1ccc(F)cc1 + CCN1CCN(Cc2ccc(Nc3ncc(F)c(-c4cc(F)c5nc(C)n(C(C)C)c5c4)n3)nc2)CC1, which IC50 [1] is on record?
**A.** 54.1 nM

**Q.** What about the IC50 [2] of the same molecule?
**A.** < 0.316 nM

**Q.** And the IC50 [3]?
**A.** < 0.316 nM

**Q.** What about the IC50 [4] of the same molecule?
**A.** < 0.316 nM

**Q.** And the IC50 [5]?
**A.** < 0.316 nM

**Q.** And the viability, T/C (second compound 0.01 µM, first compound 0.000316 µM)?
**A.** 70.5%

**Q.** What about the viability, T/C (second compound 0.01 µM, first compound 0.001 µM) of the same molecule?
**A.** 67.8%

**Q.** What about the viability, T/C (second compound 0.01 µM, first compound 0.00316 µM) of the same molecule?
**A.** 73.1%

**Q.** What about the viability, T/C (second compound 0.01 µM, first compound 0.01 µM) of the same molecule?
**A.** 64%

**Q.** And the viability, T/C (second compound 0.01 µM, first compound 0.0316 µM)?
**A.** 55.2%

**Q.** What about the viability, T/C (second compound 0.01 µM, first compound 0.1 µM) of the same molecule?
**A.** 44.5%

**Q.** What about the viability, T/C (second compound 0.0316 µM, first compound 0.000316 µM) of the same molecule?
**A.** 38.7%

**Q.** And the viability, T/C (second compound 0.0316 µM, first compound 0.001 µM)?
**A.** 50.5%

**Q.** What about the viability, T/C (second compound 0.0316 µM, first compound 0.00316 µM) of the same molecule?
**A.** 52.7%

**Q.** And the viability, T/C (second compound 0.0316 µM, first compound 0.01 µM)?
**A.** 36%

**Q.** What about the viability, T/C (second compound 0.0316 µM, first compound 0.0316 µM) of the same molecule?
**A.** 36.5%

**Q.** And the viability, T/C (second compound 0.0316 µM, first compound 0.1 µM)?
**A.** 25.2%

**Q.** What about the viability, T/C (second compound 0.1 µM, first compound 0.000316 µM) of the same molecule?
**A.** 28.1%

**Q.** What about the viability, T/C (second compound 0.1 µM, first compound 0.001 µM) of the same molecule?
**A.** 22.9%

**Q.** And the viability, T/C (second compound 0.1 µM, first compound 0.00316 µM)?
**A.** 23.9%

**Q.** And the viability, T/C (second compound 0.1 µM, first compound 0.01 µM)?
**A.** 23.2%

**Q.** What about the viability, T/C (second compound 0.1 µM, first compound 0.0316 µM) of the same molecule?
**A.** 17.5%

**Q.** What about the viability, T/C (second compound 0.1 µM, first compound 0.1 µM) of the same molecule?
**A.** 16.4%

**Q.** What about the viability, T/C (second compound 0.316 µM, first compound 0.000316 µM) of the same molecule?
**A.** 14.6%

**Q.** And the viability, T/C (second compound 0.316 µM, first compound 0.001 µM)?
**A.** 19.8%

**Q.** And the viability, T/C (second compound 0.316 µM, first compound 0.00316 µM)?
**A.** 16.2%

**Q.** What about the viability, T/C (second compound 0.316 µM, first compound 0.01 µM) of the same molecule?
**A.** 17.8%

**Q.** What about the viability, T/C (second compound 0.316 µM, first compound 0.0316 µM) of the same molecule?
**A.** 16.9%

**Q.** What about the viability, T/C (second compound 0.316 µM, first compound 0.1 µM) of the same molecule?
**A.** 13.1%

**Q.** And the viability, T/C (second compound 1 µM, first compound 0.000316 µM)?
**A.** 16.2%

**Q.** What about the viability, T/C (second compound 1 µM, first compound 0.001 µM) of the same molecule?
**A.** 17.6%

**Q.** What about the viability, T/C (second compound 1 µM, first compound 0.00316 µM) of the same molecule?
**A.** 16.2%

**Q.** What about the viability, T/C (second compound 1 µM, first compound 0.01 µM) of the same molecule?
**A.** 13%

**Q.** What about the viability, T/C (second compound 1 µM, first compound 0.0316 µM) of the same molecule?
**A.** 14.9%

**Q.** What about the viability, T/C (second compound 1 µM, first compound 0.1 µM) of the same molecule?
**A.** 12.8%

**Q.** What does the source list for CC(C)(C)c1cnc(CSc2cnc(NC(=O)C3CCNCC3)s2)o1 + CCN1CCN(Cc2ccc(Nc3ncc(F)c(-c4cc(F)c5nc(C)n(C(C)C)c5c4)n3)nc2)CC1?
**A.** IC50 [1]: 24.1 nM; IC50 [2]: < 9.49 nM; IC50 [3]: < 9.49 nM; IC50 [4]: < 9.49 nM; IC50 [5]: < 9.49 nM; viability, T/C [6]: 69.8%; viability, T/C [7]: 45.4%; viability, T/C [8]: 8.31%; viability, T/C [9]: 2.5%; viability, T/C (second compound 0.01 µM, first compound 0.949 µM): 2.72%; viability, T/C (second compound 0.01 µM, first compound 3 µM): 2.34%; viability, T/C [10]: 47.7%; viability, T/C [11]: 36.2%; viability, T/C [12]: 6.02%; viability, T/C [13]: 2.71%; viability, T/C (second compound 0.0316 µM, first compound 0.949 µM): 2.93%; viability, T/C (second compound 0.0316 µM, first compound 3 µM): 2.49%; viability, T/C [14]: 24.8%; viability, T/C [15]: 17.7%; viability, T/C [16]: 4.01%; viability, T/C [17]: 2.44%; viability, T/C (second compound 0.1 µM, first compound 0.949 µM): 3%; viability, T/C (second compound 0.1 µM, first compound 3 µM): 2.01%; viability, T/C [18]: 14.4%; viability, T/C [19]: 13.7%; viability, T/C [20]: 1.91%; viability, T/C [21]: 2.83%; viability, T/C (second compound 0.316 µM, first compound 0.949 µM): 3.36%; viability, T/C (second compound 0.316 µM, first compound 3 µM): 2.48%; viability, T/C [22]: 13.9%; viability, T/C [23]: 9.5%; viability, T/C [24]: 2.29%; viability, T/C [25]: 4.08%; viability, T/C (second compound 1 µM, first compound 0.949 µM): 4.05%; viability, T/C (second compound 1 µM, first compound 3 µM): 3.25%

**Q.** For CCN1CCN(Cc2ccc(Nc3ncc(F)c(-c4cc(F)c5nc(C)n(C(C)C)c5c4)n3)nc2)CC1, which viability, T/C (compound 0.01 µM) is on record?
**A.** 74.5% [middle of 13 runs]

**Q.** And the viability, T/C (compound 0.0316 µM)?
**A.** 44.2% [middle of 13 runs]

**Q.** What about the viability, T/C (compound 0.1 µM) of the same molecule?
**A.** 26.4% [middle of 13 runs]

**Q.** What about the viability, T/C (compound 0.316 µM) of the same molecule?
**A.** 19.7% [middle of 12 runs]

**Q.** What about the viability, T/C (compound 1 µM) of the same molecule?
**A.** 15.5% [middle of 13 runs]

**Q.** And the IC50 (compound alone, run of 05/18/2021)?
**A.** 28.5 nM [middle of 12 runs]

**Q.** Which results are given for C=CC(=O)N1CCN(c2nc(=O)n(-c3c(C)ccnc3C(C)C)c3nc(-c4c(O)cccc4F)c(F)cc23)C(C)C1 (stereo not drawn)?
**A.** viability, T/C (compound 0.0316 µM): 109% and 107%; viability, T/C (compound 0.1 µM): 107% and 104%; viability, T/C (compound 0.316 µM): 105% and 94.1%; viability, T/C (compound 1 µM): 102% and 96.4%; viability, T/C (compound 3.16 µM): 72.9% and 76.2%; viability, T/C (compound 10 µM): 48.9% and 38%; IC50 (curve of compound): 9460 nM and 7010 nM
